US20250263370A1 (Tay Therapeutics Limited, priority 2022, published 2025)
Where two headings read alike, the source gives them in different places.

What was measured:
BRD4 BD2 = BRD4 BD2 (Homo sapiens (Human), UniProt O60885); experiment: NanoBRET bromodomain assay, NanoLuc-BRD4-BD2 fusion in HEK293 cells; conditions: for IC50: BRD4 BD2 (IC50), NanoBRET, HEK293 cells, top concentration 10 μM; for Fold selectivity: IC50 for BRD4 BD1 divided by IC50 for BRD4 BD2, qualitative if an IC50 is at the upper limit;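 as to all read-outs here: tracer displacement BRET read in transfected cells after 2 h compound exposure at 37 °C, signal in milliBRET units corrected against no-tracer background wells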
BRD4 BD1 = BRD4 BD1 (Homo sapiens (Human), UniProt O60885); experiment: NanoBRET bromodomain assay, NanoLuc-BRD4-BD1 fusion in HEK293 cells; assay type: cell-based; conditions: top concentration 10 μM
IL-17A = IL-17A levels by ELISA in stimulated human peripheral blood mononuclear cells; assay type: cell-based; conditions: for IC50: Homo sapiens, PBMC; for IC50 for IL-17A relative to GSK620 / Biomarker selectivity (IL-17 vs. CXCL10): human PBMC; for IC50 for IL-17A relative to GSK620: 72 hours; for Biomarker selectivity (IL-17 vs. CXCL10): from mean IC50
Protocol: (§1) CD2, CD3, and CD28 antibody-coated beads from the T-cell activation/expansion kit (Miltenyi Biotec) were added to the PBMC at a bead-to-cell ratio of 1:2.
(§2) The mixture of PBMCs and beads were seeded into the wells of the round-bottom 96-well plate at a concentration of 2×10^5 cells/well in a total volume of 200 μL. The cells were cultured for 72 hours at 37° C. and 5% CO2 and then supernatants were collected and IL-17A and IL-22 levels were measured by ELISA. […] The final compound concentration ranged from 30,000 nM to 0.005 nM and the final DMSO concentration per well was 0.3%. PBMCs were seeded at approximately 2×10^5 cells/well in the wells of the 96-well tissue culture plate in a total volume of 190 μL. The plate was incubated for 1 hour at 37° C. and 5% CO2. […] The cells were then cultured for 24 hours at 37° C. and 5% CO2. The supernatant was collected and CXCL10 levels were measured by ELISA.

IL-22 = IL-22 levels by ELISA in stimulated human peripheral blood mononuclear cells; assay type: cell-based; conditions: for IC50: Homo sapiens, PBMC; for IC50 for IL-22 relative to GSK620 / Biomarker selectivity (IL-22 vs. CXCL10): human PBMC; for IC50 for IL-22 relative to GSK620: 72 hours; for Biomarker selectivity (IL-22 vs. CXCL10): from mean IC50
Protocol: as §1, §2

CXCL10 = CXCL10 levels by ELISA in IFN-γ stimulated human peripheral blood mononuclear cells; assay type: cell-based; conditions: human PBMC
Protocol: The impact of Examples 23, 80, and 101 on IL-17A, IL-22, and CXCL10 levels was analyzed in cryopreserved human peripheral blood mononuclear cells (PBMC) by ELISA. […] For IL-17A and IL-22 assays, Examples 23, 80, and 101 were serially diluted from 10 mM in DMSO and further diluted in assay media to 100× the required final concentration, of which, 2 μL was added per well to a round-bottom 96-well tissue culture plate where the final DMSO concentration per well was 0.1%. CD2, CD3, and CD28 antibody-coated beads from the T-cell activation/expansion kit (Miltenyi Biotec) were added to the PBMC at a bead-to-cell ratio of 1:2.
The mixture of PBMCs and beads were seeded into the wells of the round-bottom 96-well plate at a concentration of 2×10^5 cells/well in a total volume of 200 μL. The cells were cultured for 72 hours at 37° C. and 5% CO2 and then supernatants were collected and IL-17A and IL-22 levels were measured by ELISA. For the CXCL10 assay, Examples 23, 80, and 101 were serially diluted from 10 mM in DMSO and further diluted in assay media to 100× the required final concentration, of which 2 μL was added per well to a 96-well tissue culture plate. The final compound concentration ranged from 30,000 nM to 0.005 nM and the final DMSO concentration per well was 0.3%. PBMCs were seeded at approximately 2×10^5 cells/well in the wells of the 96-well tissue culture plate in a total volume of 190 μL. The plate was incubated for 1 hour at 37° C. and 5% CO2. The cells were then stimulated with IFN-γ (15 ng/mL final concentration) in a volume of 10 μL. The cells were then cultured for 24 hours at 37° C. and 5% CO2. The supernatant was collected and CXCL10 levels were measured by ELISA.

[1] = Plasma stability assay, rat plasma; assay type: in vitro ADME; conditions: Method 2 (10 μM)
Protocol: From stock solution of compound in 10 mM DMSO, a working solution of 1 mM is prepared by diluting the compound in DMSO. To 398 μL of plasma pre-warmed at 37° C. for 15 minutes), 2 μL of working solution of compound is added, resulting in a final concentration of 5 μM (0.5% DMSO) for the compound. The sample is then incubated at 37° C. Aliquot is withdrawn at specified time-points (0, 15, 30, 60 and 120 mins). The reaction is stopped by addition of 450 μL cold acetonitrile containing internal standard (IS). […] Aliquots of the supernatant is analysed using LC-MS/MS. The percent remaining of the compound at each time point is calculated with respect to the control sample (0 min time-point).
A working solution of compound (500 μM) is prepared in DMSO (100%). To 735 μL of plasma, 15 μL of working solution of compound is added—resulting in a final concentration of 10 μM (2% DMSO) for the compound. The sample is then incubated at 37° C. Aliquot is withdrawn at time-points—0, 15, 30, 60, 90 and 120 mins. The reaction is stopped by using chilled acetonitrile containing internal standard (IS). The samples are centrifuged and the supernatants analyzed using LC-MS/MS. The percent remaining of the compound at each time point is calculated with respect to the control sample (0 min time-point).

[2] = Intrinsic clearance in liver microsomes, rat; assay type: in vitro ADME; conditions: rat, liver microsomes, pH 7.4, rat liver microsomes, Method 1; read-out: Half-Life (T1/2) (min), Rat
How it was run: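 Compound at 1 μM (0.1–1% DMSO) incubated at 37 °C with mouse or rat liver microsomes (0.5 mg/mL protein) and 1 mM NADPH in PBS pH 7.4; samples taken up to 60 min and quenched in cold acetonitrile. LC-MS/MS of percent remaining gave half-life and CLint; no-NADPH controls run.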

[3] = Sprague-Dawley rat pharmacokinetics, IV and PO cassette dosing; assay type: in vivo; conditions: for PO F: PO 5 mg/kg; for PO F / IV T1/2: Method 1
Protocol: Compounds were formulated in 5% DMSO, 40% PEG-400, 55% Milli-Q water at a concentration of 0.2 mg/mL for IV and at 0.5 mg/mL for PO. Two male Sprague-Dawley rats per arm were dosed with up to 5 compounds in cassette mode, which each compound being dosed at 1 mg/kg IV and 5 mg/kg PO. Blood was sampled at various timepoints and plasma isolated. 50 μL of plasma with 5 μL of blank Sprague-Dawley rat plasma were added to 200 μL of acetonitrile containing IS mixture. The samples were vortexed for 30 s. After centrifugation at 4 degrees Celsius, 3900 rpm for 15 min, the supernatant was diluted 3 times with water. 20 μL of diluted supernatant was injected into the LC/MS/MS system for quantitative analysis and concentration of analyte determined by comparison with matrix matched standard curve. WinNonlin (Phoenix™, version 8.3) or other similar software may be used for pharmacokinetic calculations.

[4] = Test Subject 1, read-out: IL-17A IC50
[5] = Test Subject 3, read-out: IL-17A IC50
[6] = mean of test subjects, read-out: IL-17A IC50 Mean
[7] = Test Subject 2, read-out: IL-22 IC50
[8] = Test Subject 3, read-out: IL-22 IC50
[9] = mean of test subjects, read-out: IL-22 IC50 Mean
[10] = Test Subject 2, read-out: CXCL10 IC50
[11] = Test Subject 3, read-out: CXCL10 IC50
[12] = mean of test subjects, read-out: CXCL10 IC50 Mean

Row | SMILES | IC50 (BRD4 BD2) [nM] | Fold selectivity (BRD4 BD2) | IC50 (BRD4 BD1) [nM] | IC50 (IL-17A; [4]) [nM] | IC50 (IL-17A; [5]) [nM] | IC50 (IL-17A; [6]) [nM] | IC50 for IL-17A relative to GSK620 (IL-17A) | Biomarker selectivity (IL-17 vs. CXCL10) (IL-17A) [Fold] | IC50 (IL-22; [7]) [nM] | IC50 (IL-22; [8]) [nM] | IC50 (IL-22; [9]) [nM] | IC50 for IL-22 relative to GSK620 (IL-22) | Biomarker selectivity (IL-22 vs. CXCL10) (IL-22) [Fold] | selectivity to induction of CXCL10 relative to IL-17A and IL-22 (CXCL10) | IC50 (CXCL10; [10]) [nM] | IC50 (CXCL10; [11]) [nM] | Plasma Stability (% remaining at 120 minutes), Rat [1] [%] | half-life at 1 μM [2] [min] | PO F [3] [%] | IV T1/2 ([3]; IV 1 mg/kg) [min] | other results
1 | CNC(=O)c1[nH]c(-c2ncc(C)[nH]2)cc1O[C@@H](C)c1ccccc1 [Example 23, (S)-N-methyl-5-(5-methyl-1H-imidazol-2-yl)-3-(1-phenylethoxy)-1H-pyrrole-2-carboxamide] | < 50 | XXX (Fold >200) | ≥ 10000 | 104 | 53.4 | 24.5 | decreased mean IC50 | >1226 | 1.2 | 4.3 | 4.7 | decreased mean IC50 | >6429 | showed selectivity to induction of CXCL10 relative to IL-17A and IL-22 | > 30000 | > 30000 | – | – | – | – | BRD4 BD2 % Activity Remaining @ 10 uM (BRD4 BD2; 10 uM, (2) = second batch): 22%; IC50 (IL-17A; Test Subject 2, read-out: IL-17A IC50): 9.6 nM; IC50 (IL-22; Test Subject 1, read-out: IL-22 IC50): 8.5 nM; IC50 (CXCL10; [12]): > 30000 nM
2 | CNC(=O)c1[nH]c(-c2cnn(C(C)C)c2)cc1O[C@@H](C)c1ccccc1 [Example 80, (S)-5-(1-isopropyl-1H-pyrazol-4-yl)-N-methyl-3-(1-phenylethoxy)-1H-pyrrole-2-carboxamide] | < 50 | XXX (Fold >200) | ≥ 10000 | 25.1 | 187 | 106 | increased mean IC50 | >283 | 9.3 | 30.7 | 20 | decreased mean IC50 | >1500 | showed selectivity to induction of CXCL10 relative to IL-17A and IL-22 | > 30000 | > 30000 | – | – | – | – | IC50 (CXCL10; Test Subject 1, read-out: CXCL10 IC50): > 30000 nM; IC50 (CXCL10; [12]): > 30000 nM
3 | CNC(=O)c1[nH]c(C(=O)NC2COC2)cc1OC(C)c1ccc(Cl)cc1F (single isomer, unassigned) [Example 39, 3-(1-(4-chloro-2-fluorophenyl)ethoxy)-N^2-methyl-N^5-(oxetan-3-yl)-1H-pyrrole-2,5-dicarboxamide] | 50 to 200 | XX (Fold >50 and ≤200) | ≥ 10000 | – | – | – | – | – | – | – | – | – | – | – | – | – | 93 | > 60 | 11 | – | half-life ([3]; male, Sprague-Dawley, rat, plasma, iv, 1 mg/kg, IV 1 mg/kg, Method 1, read-out: IV T1/2 (converted)): 30 min
4 | CNC(=O)c1[nH]c(C(=O)NC2CCC2)cc1OC(C)c1ccc(Cl)cc1 (single isomer, unassigned) [Example 27, 3-(1-(4-chlorophenyl)ethoxy)-N^5-cyclobutyl-N^2-methyl-1H-pyrrole-2,5-dicarboxamide] | < 50 | XXX (Fold >200) | ≥ 10000 | – | – | – | – | – | – | – | – | – | – | – | – | – | 47 | 47 | 47 | 24 | –
5 | CNC(=O)c1[nH]c(C(=O)NC2CCC2)cc1OC(C)c1ccc(Cl)cc1F (single isomer, unassigned) [Example 35, 3-(1-(4-chloro-2-fluorophenyl)ethoxy)-N^5-cyclobutyl-N^2-methyl-1H-pyrrole-2,5-dicarboxamide] | < 50 | XXX (Fold >200) | ≥ 10000 | – | – | – | – | – | – | – | – | – | – | – | – | – | 67 | 46 | 65 | 30 | –
6 | CNC(=O)c1[nH]c(C(=O)NC2COC2)cc1OC(C)c1ccc(Cl)cc1 (single isomer, unassigned) [Example 31, 3-(1-(4-chlorophenyl)ethoxy)-N^2-methyl-N^5-(oxetan-3-yl)-1H-pyrrole-2,5-dicarboxamide] | – | XX (Fold >50 and ≤200) | – | – | – | – | – | – | – | – | – | – | – | – | – | – | 81 | > 60 | 15 | 36 | –
